Where two headings read alike, the source gives them in different places.
Key:
[1] = test system: G. lamblia GS trophozoites; assay: Trophozoite growth inhibition, ATP content (ATPlite) assay; type: cell-based, Giardia lamblia; conditions: for IC50: Giardia duodenalis, 72 h, read-out: Mean [IC50 ± SE(IC50)] G. lamblia GS
Procedure: (§1) Antigiardia assays followed by enzyme inhibition determination facilitated the selection of compounds for permeation and stability studies by in vitro methods, prior to advancing to in vivo studies. Compound potency was evaluated first by measuring G. lamblia trophozoite growth as a function of the compound concentration and calculating the IC50 values. Potency in Entamoeba histolytica trophozoites was also determined because of the early report that fumagillin cured amebiasis ([19]). The intent was to test whether the compounds would be suitable to treat gastrointestinal amebiasis rather than the invasive form of the disease, given that the designed strategy was based on reducing compound permeation across the epithelial cell barrier. […] Trophozoite growth was determined by monitoring the ATP cell content using a high-throughput homogeneous assay developed previously for G. lamblia ([57]). The ATP content serves as a marker of cell integrity since ATP degrades rapidly when cells die and the luminescence signal generated by luciferase requires ATP. The same assay was also adopted in 96-well plates for E. histolytica trophozoite growth measurement, as described in Materials and Methods. A similar E. histolytica trophozoite ATP content assay was described previously ([58]). Fumagillin, TNP-470, and a standard-of-care drug (metronidazole) served as positive controls, and cells without the drug (in the presence of 0.5% dimethyl sulfoxide [DMSO]) served as the negative control.
(§2) Trophozoites of G. lamblia isolates WB and GS were grown anaerobically in borosilicate glass screw-cap culture tubes (Fisher Scientific) at pH 7.0 in Keister’s modified TYI-S-33 medium (ATCC). The medium was supplemented with 10% heat-inactivated bovine serum (Sigma-Aldrich) and 0.05% bovine bile (Sigma-Aldrich). To attain low-oxygen-tension conditions, the tubes were filled to 85% to 90% of their total volume capacity and incubated without shaking at 37°C. Subcultures (2 × 10^5 trophozoites per tube) were made three times a week. Detachment of trophozoites for inoculation was achieved by chilling the cultures on ice for 20 min. Culturing and detachment of metronidazole-resistant G. lamblia assemblage A 713M3 and assemblage B 1279-M1 trophozoites followed the same protocol, except that the growth medium was supplemented with metronidazole, with the concentration gradually being increased to 10 μM.
(§3) The growth inhibition assays were performed in duplicate, once for each compound, for all compounds except fumagillin, which served as a positive control and whose inhibitory ability was measured multiple times as new sets of compounds were tested. All dry compounds except for fumagillin were dissolved in dimethyl sulfoxide (DMSO; Sigma) at a stock concentration of 10 mM and then diluted 1:100 in growth medium to a final compound concentration of 100 μM; fumagillin was diluted to 20 μM. Compound solution aliquots (100 μl) were prepared by 3-fold serial dilutions in growth medium containing 0.5% DMSO and distributed into 96-well assay plates. This was followed by the addition of 10 μl G. lamblia or E. histolytica culture containing 10,000 trophozoites. Fumagillin served as a positive control, and the medium-diluted DMSO alone served as a negative control. The assay plates were placed in a BD GasPak EZ container system (BD Diagnostics) to create an anaerobic growth environment. The sealed containers were incubated at 37°C for 72 h. Following incubation, 70 μl/well of the ATPlite reagent (PerkinElmer) was added to the assay plates for one-step lysis and ATP level detection. The luminescent signals of the assay plates were measured on an EnSpire 2300 plate reader (PerkinElmer). Concentration-response titration points for each compound were fitted to a 4-parameter logistic nonlinear regression model using the KaleidaGraph tool, yielding the IC50 value and standard error (SE).

[2] = test system: G. lamblia WB trophozoites; assay: as above; type: cell-based; conditions: Giardia duodenalis, 72 h, read-out: Mean [IC50 ± SE(IC50)] G. lamblia WB
Procedure: as §1, §2, §3

[3] = test system: E. histolytica HM1:IMSS trophozoites; assay: as above; type: cell-based; conditions: Entamoeba histolytica, 72 h, read-out: Mean [IC50 ± SE(IC50)] E. histolytica HM1: IMSS
Procedure: as §1
E. histolytica strain HM1:IMSS trophozoites were grown at 37°C in TYI-S-33 medium supplemented with penicillin (100 U/ml) and streptomycin sulfate (100 μg/ml) ([65]). Trophozoites were grown anaerobically in borosilicate tubes or T25 flasks, and subcultures were made 1 to 2 times a week. Trophozoites were detached for inoculation by chilling the cultures on ice for 20 min.
as §3, with “The sealed containers were incubated at 37°C for 72 h.” left out

[4] = in vitro; conditions: human; for Papp at 120 min, 10 µM: Caco-2, pH 7.4, Mean ± SE Papp, Caco-2, 10 μM
Excerpt: Next, we tested the permeation of the compounds across polarized Caco-2 cell monolayers, a method that is widely used as an in vitro model of the human small intestinal mucosa to predict the absorption of orally administered drugs ([63], [64]). With noninvasive intestinal infections, there is no need to establish a high plasma concentration. Since a high rate of uptake through the host gut lining could increase compound toxicity, we sought to reduce gut absorption. […] Both apical-to-basal and basal-to-apical permeation values were measured to obtain information about efflux. […] The efflux machinery is currently unknown.
Passage 36 Caco-2 cells were used. The cells were cultured in Dulbecco’s modified Eagle’s medium (DMEM; 5 ml of 100 mM sodium pyruvate, 5 ml of 100× nonessential amino acids, 5 ml of penicillin-streptomycin, and 100 ml of heat-inactivated fetal bovine serum added to 385 ml of DMEM aseptically and mixed thoroughly), pH 7.4, at 37°C in 5% CO2. DMEM (250 μl) was added to the basal compartment of 96-well multiscreen Caco-2 cell plate consisting of high-pore-density polycarbonate (Millipore) with a 0.4-μm pore size and a 0.11-cm^2 active membrane area. The cells were seeded at a density of 12,000 cells/well (0.16 × 10^6 cells/ml) in the apical wells, with one well containing only medium as blank. The Caco-2 cell plate was placed in a CO2 incubator at 37°C for cell proliferation. On the day of assay, the medium was removed, washed twice with Hanks balanced salt solution (HBSS) buffer supplemented with 2% bovine serum albumin (BSA), pH 7.4, and incubated with the HBSS buffer for 30 min at 37°C. Wells with transepithelial electrical resistance values of greater than 230 Ω · cm^2 were selected for the experiments. […] The assay was performed in duplicate.
Seventy-five microliters of the test compounds was added to the apical wells, and 250 μl of HBSS buffer with 2% BSA was added to the basal wells. The plate was incubated in a CO2 incubator with shaking on a plate shaker at 150 rpm for 120 min, after which 25 μl of the basal samples was collected and processed.
Two hundred fifty microliters of test compounds was added to the basal wells, and 75 μl of HBSS buffer with 2% BSA was added to the apical wells. The plate was incubated in a CO2 incubator with shaking on a plate shaker at 150 rpm for 120 min, after which 25 μl of the apical samples was collected and processed.
For sample processing, a single-point calibration curve in HBSS buffer with 2% BSA was used. Donor samples were diluted 1:1 with HBSS containing 2% BSA, and receiver samples were diluted with 1:1 HBSS buffer and precipitated with 200 μl of acetonitrile containing internal standard. The samples were vortexed for 5 min at 1,000 rpm and centrifuged at 4,000 rpm for 10 min. One hundred microliters of the supernatant was diluted with 200 μl of water and analyzed by LC-MS/MS (with a Shimadzu ultrafast liquid chromatograph and an API 4000 LC-MS/MS system).
The apparent permeation coefficients (Papp) were calculated as Papp = (dQ/dT) × (1/C0) × (1/A), where dQ is the amount permeated to the receiver compartment of the 96-well plate, dT is the time of compound incubation, C0 is the initial compound concentration in the donor compartment of the well, and A is the surface area of the monolayer.

[5] = trophozoite growth, ATP content

Row | SMILES | IC50 [1, 5] | IC50 [2, 5] | IC50 [3, 5] | other results
1 | CO[C@@H]1[C@H](O)CC[C@]2(CO2)[C@H]1[C@@]1(C)O[C@@H]1CC=C(C)C [Fumagillol] |  |  |  | IC50 [1]: 3400 ± 489 nM
2 | COC1C(OC(=O)Nc2ccc(CC(=O)O)cc2)CCC2(CO2)C1C1(C)OC1CC=C(C)C (centres unmarked) [Compound 12] | 63.2 ± 10 nM | 342 ± 50 nM | 94 ± 6.8 nM | 
3 | COC1C(OC(=O)NCC(=O)O)CCC2(CO2)C1C1(C)OC1CC=C(C)C (centres unmarked) [Compound 14] | > 100000 nM | > 100000 nM | 11200 ± 123 nM | 
4 | COC1C(OC(=O)NC(=O)CN2CCCCC2)CCC2(CO2)C1C1(C)OC1CC=C(C)C (centres unmarked) [Compound 2] | 82.5 ± 26.4 nM | 90.9 ± 34.3 nM | 435 ± 79 nM | 
5 | COC1C(OC(=O)NC(=O)CN(C)C)CCC2(CO2)C1C1(C)OC1CC=C(C)C (centres unmarked) [Compound 1] | 2.4 ± 0.5 nM | 2 ± 0.2 nM | 4.7 ± 0.5 nM | 
6 | COC1C(OC(=O)N2CCN(c3ccccc3)CC2)CCC2(CO2)C1C1(C)OC1CC=C(C)C (centres unmarked) [Compound 17] | 109 ± 13.7 nM | 251 ± 70 nM | > 100000 nM | fold loss of potency compared to compound 16 ([1]; G. lamblia trophozoites): 100 fold
7 | COC1C(OC(=O)Nc2ccccc2)CCC2(CO2)C1C1(C)OC1CC=C(C)C (centres unmarked) [Compound 7] | 7 ± 1 nM | 3.7 ± 1 nM | 14.6 ± 2.6 nM | 
8 | CCOC(=O)CNC(=O)OC1CCC2(CO2)C(C2(C)OC2CC=C(C)C)C1OC (centres unmarked) [Compound 13] |  |  |  | IC50 [1]: 1.5 ± 0.3 nM; IC50 [2]: 13.1 ± 2.4 nM; IC50 [3]: 23.7 ± 2.6 nM
9 | CC(C)NCC(O)COc1cccc2ccccc12 (centres unmarked) [Propranolol, reference compound] |  |  |  | efflux ratio at 120 min, 10 µM ([4]; Caco-2, pH 7.4): 0.36; Papp at 120 min, 10 µM ([4]; apical to basal): 22.6 ± 1.1 ×10⁻⁶ cm/s; Papp at 120 min, 10 µM ([4]; basal to apical): 8.14 ± 0.28 ×10⁻⁶ cm/s
10 | CCOC(=O)c1ccc(NC(=O)OC2CCC3(CO3)C(C3(C)OC3CC=C(C)C)C2OC)cc1 (centres unmarked) [Compound 8] | 27.2 ± 18.1 nM | 12.5 ± 4.2 nM | 54 ± 4.3 nM | fold less active than compound 7 ([1]; trophozoite IC50): ~4 fold
11 | CO[C@@H]1[C@H](OC(=O)NC(=O)CCl)CC[C@]2(CO2)[C@H]1[C@@]1(C)O[C@@H]1CC=C(C)C [TNP-470, (3R,4S,5S,6R)-5-methoxy-4-((2R,3R)-2-methyl-3-(3-methylbut-2-en-1-yl)oxiran-2-yl)-1-oxaspiro[2.5]octan-6-yl (2-chloroacetyl)carbamate, reference compound] |  |  |  | IC50 [1]: 3.4 ± 0.7 nM; IC50 [2]: 2.6 ± 0.2 nM
12 | COC1C(OC(=O)N2CCCCC2)CCC2(CO2)C1C1(C)OC1CC=C(C)C (centres unmarked) [Compound 15] | 2.9 ± 0.8 nM | 4.9 ± 2.2 nM | 7.8 ± 0.6 nM | 
13 | COC1C(OC(=O)NC(=O)CN2CCN(CCO)CC2)CCC2(CO2)C1C1(C)OC1CC=C(C)C (centres unmarked) [Compound 6] | 37 ± 4.4 nM | 53.6 ± 10.6 nM | 223 ± 29.8 nM | 
14 | COC1C(OC(=O)NC(=O)CN2CCN(C)CC2)CCC2(CO2)C1C1(C)OC1CC=C(C)C (centres unmarked) [Compound 5] | 12.3 ± 2.5 nM | 22.3 ± 1.4 nM | 117 ± 8.4 nM | 
15 | CCOC(=O)CO[C@@H]1CC[C@]2(CO2)[C@@H]([C@@]2(C)O[C@@H]2CC=C(C)C)[C@@H]1OC [Compound 18, ethyl 2-(((3R,4S,5S,6R)-5-methoxy-4-((2R,3R)-2-methyl-3-(3-methylbut-2-en-1-yl)oxiran-2-yl)-1-oxaspiro[2.5]octan-6-yl)oxy)acetate] |  |  |  | IC50 [1]: 40.1 ± 4.8 nM; IC50 [2]: 42.6 ± 17.5 nM; IC50 [3]: 318 ± 16 nM
16 | CO[C@@H]1[C@H](OC(=O)Nc2ccc(C(=O)N3CCC(O)CC3)cc2)CC[C@]2(CO2)[C@H]1[C@@]1(C)O[C@@H]1CC=C(C)C [Compound 10, (3R,4S,5S,6R)-5-methoxy-4-((2R,3R)-2-methyl-3-(3-methylbut-2-en-1-yl)oxiran-2-yl)-1-oxaspiro[2.5]octan-6-yl (4-(4-hydroxypiperidine-1-carbonyl)phenyl)carbamate] |  |  |  | IC50 [1]: 38.4 ± 3.4 nM; IC50 [2]: 171 ± 21 nM; IC50 [3]: 32 ± 2.1 nM
17 | COC1C(OCC(=O)O)CCC2(CO2)C1C1(C)OC1CC=C(C)C (centres unmarked) [Compound 19] | > 2000 nM | > 2000 nM | > 2000 nM | 
